Values quoted from earlier work in patent publication US20190328710A1, “SYNERGISTIC COMPOSITION FOR INHIBITING ADVANCED GLYCATION END PRODUCT CROSSLINKING” (H2 Water Technologies Ltd., priority 2018, published 2019).

Tested on: patients with cataracts
Details: 96-patient trial, 6-month trial period

NCCC(=O)N[C@@H](Cc1cnc[nH]1)C(=O)O [L-Carnosine]
success rate in advanced senile cataracts (advanced senile cataracts): 80%
success rate in patients with mild to moderate cataracts (mild to moderate cataracts): 100%
